# Tested on: Pneumocystis carinii
# Assay: Anti-P. carinii activity determined as change in number of Pneumocystis carinii trophozoites from day 1 through day 7 in culture at 1 uM
# Format: functional
# Conditions: not given
row,Structure (SMILES),Change in No. of trophozoites x 10E-5
1,c1cc(N2CCCN(c3ccc(C4=NCCCN4)cc3)CC2)ccc1C1=NCCCN1,10.73
2,N=C(NC1CCCC1)c1ccc(N2CCCN(c3ccc(C(=N)NC4CCCC4)cc3)CC2)cc1,34.32
3,CC(C)/N=C(\N)c1ccc(N2CCCN(c3ccc(/C(N)=N/C(C)C)cc3)CC2)cc1,20.2
4,N=C(NC1CC1)c1ccc(N2CCCN(c3ccc(C(=N)NC4CC4)cc3)CC2)cc1,10.92
5,N=C(NCCO)c1ccc(N2CCCN(c3ccc(/C(N)=N/CCO)cc3)CC2)cc1,33.62
6,CC(C)(C)/N=C(\N)c1ccc(N2CCCN(c3ccc(/C(N)=N/C(C)(C)C)cc3)CC2)cc1,21.57
7,CCCCNC(=N)c1ccc(N2CCCN(c3ccc(C(=N)NCCCC)cc3)CC2)cc1,19.19
8,N=C(NCCCO)c1ccc(N2CCCN(c3ccc(/C(N)=N/CCCO)cc3)CC2)cc1,34.79

# Tested on: not listed separately
# Assay: Binding affinity for Poly (dA-dT) measured as change in melting temperature
# Conditions: not given
row,Structure (SMILES),ΔTm [°C]
1,c1cc(N2CCCN(c3ccc(C4=NCCCN4)cc3)CC2)ccc1C1=NCCCN1,21.3
2,CC(C)/N=C(\N)c1ccc(N2CCCN(c3ccc(/C(N)=N/C(C)C)cc3)CC2)cc1,20
3,N=C(N)c1ccc(OCCCCCOc2ccc(C(=N)N)cc2)cc1 [PENTAMIDINE],20.6
4,N=C(N)c1ccc(N2CCCN(c3ccc(C(=N)N)cc3)CC2)cc1,23.1
5,N=C(NCCCO)c1ccc(N2CCCN(c3ccc(/C(N)=N/CCCO)cc3)CC2)cc1,23.6

# More lines, now with the values ahead:
row,ΔTm [°C],Structure (SMILES)
1,26.5,N=C(NC1CCCC1)c1ccc(N2CCCN(c3ccc(C(=N)NC4CCCC4)cc3)CC2)cc1
2,23.6,N=C(NC1CC1)c1ccc(N2CCCN(c3ccc(C(=N)NC4CC4)cc3)CC2)cc1
3,14.7,N=C(NCCO)c1ccc(N2CCCN(c3ccc(/C(N)=N/CCO)cc3)CC2)cc1
4,7.4,CC(C)(C)/N=C(\N)c1ccc(N2CCCN(c3ccc(/C(N)=N/C(C)(C)C)cc3)CC2)cc1
5,13.3,CCCCNC(=N)c1ccc(N2CCCN(c3ccc(C(=N)NCCCC)cc3)CC2)cc1

# Tested on: Pneumocystis carinii
# Assay: Anti-P. carinii activity determined as change in number of Pneumocystis carinii trophozoites from day 1 through day 5 in culture at 1 uM
# Format: functional
# Conditions: not given
row,Structure (SMILES),Change in No. of trophozoites x 10E-5
1,N=C(N)c1ccc(OCCCCCOc2ccc(C(=N)N)cc2)cc1 [PENTAMIDINE],-3.98
2,N=C(N)c1ccc(N2CCCN(c3ccc(C(=N)N)cc3)CC2)cc1,-3.32

# Tested on: Nucleic Acid
# Assay: Binding affinity for calf thymus DNA measured as change in melting temperature
# Format: nucleic-acid assay
# Conditions: Bos taurus
row,Structure (SMILES),ΔTm [°C]
1,c1cc(N2CCCN(c3ccc(C4=NCCCN4)cc3)CC2)ccc1C1=NCCCN1,15.5
2,CC(C)/N=C(\N)c1ccc(N2CCCN(c3ccc(/C(N)=N/C(C)C)cc3)CC2)cc1,13.8
3,N=C(N)c1ccc(OCCCCCOc2ccc(C(=N)N)cc2)cc1 [PENTAMIDINE],11.1
4,N=C(N)c1ccc(N2CCCN(c3ccc(C(=N)N)cc3)CC2)cc1,15
5,N=C(NCCCO)c1ccc(N2CCCN(c3ccc(/C(N)=N/CCCO)cc3)CC2)cc1,17.4

# Further lines, results first:
row,ΔTm [°C],Structure (SMILES)
1,17.9,N=C(NC1CCCC1)c1ccc(N2CCCN(c3ccc(C(=N)NC4CCCC4)cc3)CC2)cc1
2,15.3,N=C(NC1CC1)c1ccc(N2CCCN(c3ccc(C(=N)NC4CC4)cc3)CC2)cc1
3,11.1,N=C(NCCO)c1ccc(N2CCCN(c3ccc(/C(N)=N/CCO)cc3)CC2)cc1
4,4.1,CC(C)(C)/N=C(\N)c1ccc(N2CCCN(c3ccc(/C(N)=N/C(C)(C)C)cc3)CC2)cc1
5,11.8,CCCCNC(=N)c1ccc(N2CCCN(c3ccc(C(=N)NCCCC)cc3)CC2)cc1

# Tested on: Pneumocystis carinii
# Assay: Percent of control growth of Pneumocystis carinii trophozoites was determined
# Format: functional
# Set-up: concentration or dose not given beside the values
# Conditions: not given
row,Structure (SMILES),Growth [%]
1,c1cc(N2CCCN(c3ccc(C4=NCCCN4)cc3)CC2)ccc1C1=NCCCN1,32
2,N=C(NC1CCCC1)c1ccc(N2CCCN(c3ccc(C(=N)NC4CCCC4)cc3)CC2)cc1,103
3,CC(C)/N=C(\N)c1ccc(N2CCCN(c3ccc(/C(N)=N/C(C)C)cc3)CC2)cc1,61
4,N=C(NC1CC1)c1ccc(N2CCCN(c3ccc(C(=N)NC4CC4)cc3)CC2)cc1,33
5,N=C(N)c1ccc(OCCCCCOc2ccc(C(=N)N)cc2)cc1 [PENTAMIDINE],<0
6,N=C(N)c1ccc(N2CCCN(c3ccc(C(=N)N)cc3)CC2)cc1,<0
7,N=C(NCCO)c1ccc(N2CCCN(c3ccc(/C(N)=N/CCO)cc3)CC2)cc1,101
8,CC(C)(C)/N=C(\N)c1ccc(N2CCCN(c3ccc(/C(N)=N/C(C)(C)C)cc3)CC2)cc1,65
9,COc1cc(Cc2cnc(N)nc2N)cc(OC)c1OC.Cc1cc(NS(=O)(=O)c2ccc(N)cc2)no1 [CO-TRIMOXAZOLE],<0
10,CCCCNC(=N)c1ccc(N2CCCN(c3ccc(C(=N)NCCCC)cc3)CC2)cc1,58
11,N=C(NCCCO)c1ccc(N2CCCN(c3ccc(/C(N)=N/CCCO)cc3)CC2)cc1,105

# From ChEMBL document CHEMBL1133802, “N,N'-bis[4-(N-alkylamidino)phenyl]homopiperazines as anti-Pneumocystis carinii agents” (2001)
